# According to US20220274945A1, “SUBSTITUTED THIOPHENE CARBOXAMIDES AND DERIVATIVES THEREOF AS MICROBICIDES” (Bayer Aktiengesellschaft, priority 2019, published 2022):
# System: Xanthomonas campestris pv. campestris
# Assay: Xanthomonas campestris pv. campestris in vitro cell test
# Assay type: cell-based
# Details: 20 ppm of active ingredient, liquid culture, 24 h incubation, read-out: efficacy (inhibition of bacteria growth)
# Procedure: (§1) • Solvent: DMSO • Culture medium: LB broth medium (Luria Broth Miller) Sigma • Inoculum: bacteria suspension Compounds were solubilized in DMSO and the solution used to prepare the required range of concentrations. The final concentration of DMSO used in the assay was 10%. Inoculum was prepared from a pre-culture of bacteria grown in liquid medium and diluted to the desired optical density (OD). Compounds were evaluated for their ability to inhibit bacteria growth in liquid culture assay. The compounds were added in the desired concentrations to culture medium containing the bacteria suspension. After 24 h of incubation, the efficacy of compounds was determined by spectrometric measurement of bacteria growth. Inhibition was determined by comparing the absorbance values in wells containing the compounds with the absorbance in control wells without active ingredients.
row,SMILES,inhibition at 20 ppm
1,"CCOC(=O)C1(NC(=O)c2sc(Br)c(Br)c2F)CC1 [I.01, ethyl 1-{[(4,5-dibromo-3-fluoro-2-thienyl)carbonyl]amino}cyclopropanecarboxylate]",≤ 30%
2,"CCOC(=O)C1(NC(=O)c2sc(Cl)c(Cl)c2Br)CC1 [I.03, Ethyl 1-{[(3-bromo-4,5-dichloro-2-thienyl)carbonyl]amino}cyclopropanecarboxylate]",≤ 30%
3,"O=C(NC1(C(=O)O)CC1)c1sc(Cl)c(Cl)c1Br [I.15, 1-{[(3-bromo-4,5-dichloro-2-thienyl)carbonyl]amino}cyclopropanecarboxylic Acid]",≤ 30%

# System: Pseudomonas syringae pv. tomato
# Assay: Pseudomonas syringae pv. tomato in vitro cell test
# Assay type: cell-based
# Details: 20 ppm of active ingredient, liquid culture, 24 h incubation, read-out: efficacy (inhibition of bacteria growth)
# Procedure: as §1, with “suspension Compounds to be tested were solubilized” for “suspension Compounds were solubilized”, “assay was ≤1%. Inoculum was” for “assay was 10%. Inoculum was”, “wells without compounds.” for “wells without active ingredients.”
row,SMILES,inhibition at 20 ppm
1,"CCOC(=O)C1(NC(=O)c2sc(Br)c(Br)c2F)CC1 [I.01, ethyl 1-{[(4,5-dibromo-3-fluoro-2-thienyl)carbonyl]amino}cyclopropanecarboxylate]",≤ 30%
2,"CCOC(=O)C1(NC(=O)c2sc(Cl)c(Cl)c2Br)CC1 [I.03, Ethyl 1-{[(3-bromo-4,5-dichloro-2-thienyl)carbonyl]amino}cyclopropanecarboxylate]",≤ 30%
3,"O=C(NC1(C(=O)O)CC1)c1sc(Cl)c(Cl)c1Br [I.15, 1-{[(3-bromo-4,5-dichloro-2-thienyl)carbonyl]amino}cyclopropanecarboxylic Acid]",≤ 30%

# System: not listed separately
# Assay: Log P by HPLC on reversed phase columns (EEC directive 79/831 Annex V.A8)
# Assay type: physicochemical
# Details: not given
# Procedure: In the above tables, measurement of Log P values was performed according to EEC directive 79/831 Annex V.A8 by HPLC (High Performance Liquid Chromatography) on reversed phase columns with the following methods: [^a] […] If more than one Log P value is available within the same method, all the values are given and separated by “+”. Calibration was done with straight-chain alkan2-ones (with 3 to 16 carbon atoms) with known Log P values (measurement of Log P values using retention times with linear interpolation between successive alkanones). Lambda-max-values were determined using UV-spectra from 200 nm to 400 nm and the peak values of the chromatographic signals.
row,LogP,SMILES
1,2.19^[a],O=C(NC1(C(=O)O)CC1)c1sc(Br)c(Br)c1F [I.02]
2,3.92^[a],CC(C)COC(=O)C1(NC(=O)c2sc(Br)c(Br)c2F)CC1 [I.20]
3,3.96^[a],CCCCOC(=O)C1(NC(=O)c2sc(Br)c(Br)c2F)CC1 [I.21]
4,3.52^[a],CC(C)OC(=O)C1(NC(=O)c2sc(Br)c(Br)c2F)CC1 [I.22]
5,4.34^[a],CCCCOC(=O)C1(NC(=O)c2sc(Cl)c(Cl)c2Br)CC1 [I.29]
6,4.07^[a],O=C(NC1(C(=O)OC2CCC2)CC1)c1sc(Cl)c(Cl)c1Br [I.30]
7,3.86^[a],CC(C)OC(=O)C1(NC(=O)c2sc(Cl)c(Cl)c2Br)CC1 [I.32]
8,3.66^[a],C=CCOC(=O)C1(NC(=O)c2sc(Cl)c(Cl)c2Br)CC1 [I.34]
9,4.10^[a],O=C(NC1(C(=O)OC2CCC2)CC1)c1sc(Br)c(Br)c1Br [I.38]
10,3.92^[a],CCCOC(=O)C1(NC(=O)c2sc(Br)c(Br)c2Br)CC1 [I.39]
11,3.91^[a],CCCOC(=O)C1(NC(=O)c2sc(Br)c(Br)c2Cl)CC1 [I.40]
12,4.17^[a],O=C(NC1(C(=O)OC2CCC2)CC1)c1sc(Br)c(Br)c1Cl [I.42]
13,3.05^[a],CCOC(=O)C1(NC(=O)c2sc(Cl)c(Cl)c2F)CC1 [I.44]
14,3.44^[a],C#CCOC(=O)C1(NC(=O)c2sc(Br)c(Br)c2Br)CC1 [I.47]
15,4.37^[a],O=C(NC1(C(=O)OCc2ccccc2)CC1)c1sc(Br)c(Br)c1Br [I.50]
16,3.40^[a],C#CCOC(=O)C1(NC(=O)c2sc(Br)c(Br)c2I)CC1 [I.51]
17,3.71^[a],C=CCOC(=O)C1(NC(=O)c2sc(Br)c(Br)c2I)CC1 [I.52]
18,4.47^[a],O=C(NC1(C(=O)OC2CCCC2)CC1)c1sc(Br)c(Br)c1Br [I.55]
19,3.98^[a],CC(C)OC(=O)C1(NC(=O)c2sc(Br)c(Br)c2Br)CC1 [I.58]
20,4.37^[a],O=C(NC1(C(=O)OC2CCCC2)CC1)c1sc(Br)c(Br)c1I [I.59]
21,3.87^[a],CC(C)OC(=O)C1(NC(=O)c2sc(Br)c(Br)c2I)CC1 [I.62]
22,3.91^[a],O=C(NC1(C(=O)OCC(F)(F)F)CC1)c1sc(Cl)c(Cl)c1Br [I.64]
23,5.00^[a],C[Si](C)(C)COC(=O)C1(NC(=O)c2sc(Cl)c(Cl)c2Br)CC1 [I.65]
24,4.19^[a],O=C(NC1(C(=O)Oc2ccccc2)CC1)c1sc(Cl)c(Cl)c1Br [I.66]
25,4.02^[a],O=C(NC1(C(=O)OCC2CC2)CC1)c1sc(Br)c(Br)c1Br [I.67]
26,3.26^[a],O=C(NC1(C(=O)OC2CCOCC2)CC1)c1sc(Br)c(Br)c1Br [I.68]
27,3.23^[a],O=C(NC1(C(=O)OC2CCOCC2)CC1)c1sc(Cl)c(Cl)c1Br [I.70]
28,3.16^[a],N#CCOC(=O)C1(NC(=O)c2sc(Br)c(Br)c2Br)CC1 [I.72]
29,2.98^[a],CCOC(=O)C1(NC(=O)c2sc(Br)cc2I)CC1 [IVb.02]
30,3.25^[a],CC(C)OC(=O)C1(NC(=O)c2cc(Br)c(Br)s2)CC1 [V.02]

# More lines, now with the values behind:
row,SMILES,LogP
1,CCOC(=O)C1(NC(=O)c2sc(Cl)c(Cl)c2I)CC1 [I.04],3.39^[a]
2,O=C(NC1(C(=O)OCc2ccccc2)CC1)c1sc(Br)c(Br)c1F [I.17],3.94^[a]
3,O=C(NC1(C(=O)OC2CCCC2)CC1)c1sc(Br)c(Br)c1F [I.18],3.99^[a]
4,CC(C)(C)OC(=O)C1(NC(=O)c2sc(Br)c(Br)c2F)CC1 [I.19],3.91^[a]
5,C=CCOC(=O)C1(NC(=O)c2sc(Br)c(Br)c2F)CC1 [I.24],3.33^[a]
6,O=C(NC1(C(=O)OCc2ccccc2)CC1)c1sc(Cl)c(Cl)c1Br [I.25],4.28^[a]
7,O=C(NC1(C(=O)OC2CCCC2)CC1)c1sc(Cl)c(Cl)c1Br [I.26],4.37^[a]
8,CC(C)COC(=O)C1(NC(=O)c2sc(Cl)c(Cl)c2Br)CC1 [I.28],4.31^[a]
9,CCCOC(=O)C1(NC(=O)c2sc(Cl)c(Cl)c2Br)CC1 [I.31],3.89^[a]
10,C#CCOC(=O)C1(NC(=O)c2sc(Cl)c(Cl)c2Br)CC1 [I.33],3.35^[a]
11,O=C(NC1(C(=O)OC2CCC2)CC1)c1sc(Br)c(Br)c1I [I.35],3.99^[a]
12,O=C(NC1(C(=O)OC2CCC2)CC1)c1sc(Br)c(Br)c1F [I.36],3.71^[a]
13,CCCOC(=O)C1(NC(=O)c2sc(Br)c(Br)c2F)CC1 [I.37],3.54^[a]
14,CCCOC(=O)C1(NC(=O)c2sc(Br)c(Br)c2I)CC1 [I.41],3.85^[a]
15,COC(=O)C1(NC(=O)c2sc(Cl)c(Cl)c2F)CC1 [I.45],2.65^[a]
16,O=C(NC1(C(=O)OCC2CC2)CC1)c1sc(Cl)c(Cl)c1Br [I.46],4.05^[a]
17,C=CCOC(=O)C1(NC(=O)c2sc(Br)c(Br)c2Br)CC1 [I.48],3.77^[a]
18,CC(C)(C)OC(=O)C1(NC(=O)c2sc(Br)c(Br)c2Br)CC1 [I.49],4.40^[a]
19,CC(C)COC(=O)C1(NC(=O)c2sc(Br)c(Br)c2Br)CC1 [I.56],4.40^[a]
20,CCCCOC(=O)C1(NC(=O)c2sc(Br)c(Br)c2Br)CC1 [I.57],4.44^[a]
21,C[Si](C)(C)COC(=O)C1(NC(=O)c2sc(Br)c(Br)c2Br)CC1 [I.69],4.97^[a]
22,O=C(NC1(C(=O)OC2CSC2)CC1)c1sc(Cl)c(Cl)c1Br [I.71],3.87^[a]
23,O=C(NC1(C(=O)OCC(F)(F)F)CC1)c1sc(Br)c(Br)c1Br [I.74],3.94^[a]
24,O=C(NC1(C(=O)OC2CSC2)CC1)c1sc(Br)c(Br)c1Br [I.75],4.85^[a]
25,CCOC(=O)C1(NC(=O)c2sc(Br)cc2Cl)CC1 [IVb.01],2.84^[a]
26,CCOC(=O)C1(NC(=O)c2sc(Br)cc2F)CC1 [IVb.03],2.46^[a]
27,CCOC(=O)C1(NC(=O)c2sc(Br)cc2Br)CC1 [IVb.05],2.92^[a]
28,CCOC(=O)C1(NC(=O)c2sccc2F)CC1 [IVc.01],1.65^[a]
29,CCOC(=O)C1(NC(=O)c2cc(Br)c(Br)s2)CC1 [V.01],2.90^[a]
30,COC(=O)C1(NC(=O)c2cc(Cl)c(Cl)s2)CC1 [V.04],2.49^[a]

# Same assay, conditions: reversed phase HPLC columns, method [a]: LC-UV, acidic range, 0.1% formic acid in water and acetonitrile as eluent
row,SMILES,chromatographic logP
1,"CCOC(=O)C1(NC(=O)c2sc(Br)c(Br)c2F)CC1 [I.01, ethyl 1-{[(4,5-dibromo-3-fluoro-2-thienyl)carbonyl]amino}cyclopropanecarboxylate]",3.13
2,"O=C(NC1(C(=O)O)CC1)c1sc(Cl)c(Cl)c1Br [I.15, 1-{[(3-bromo-4,5-dichloro-2-thienyl)carbonyl]amino}cyclopropanecarboxylic Acid]",2.37
3,"CCOC(=O)C1(NC(=O)c2scc(Br)c2F)CC1 [IVa.01, Ethyl 1-{[(4-bromo-3-fluoro-2-thienyl)carbonyl]amino}cyclopropanecarboxylate]",2.37

# Same assay, conditions: reversed phase HPLC columns, value in the preparation example; method letter not given
row,SMILES,chromatographic logP
1,"CCOC(=O)C1(NC(=O)c2sc(Br)c(Br)c2F)CC1 [I.01, ethyl 1-{[(4,5-dibromo-3-fluoro-2-thienyl)carbonyl]amino}cyclopropanecarboxylate]",3.13
2,"O=C(NC1(C(=O)O)CC1)c1sc(Cl)c(Cl)c1Br [I.15, 1-{[(3-bromo-4,5-dichloro-2-thienyl)carbonyl]amino}cyclopropanecarboxylic Acid]",2.39
3,"CCOC(=O)C1(NC(=O)c2scc(Br)c2F)CC1 [IVa.01, Ethyl 1-{[(4-bromo-3-fluoro-2-thienyl)carbonyl]amino}cyclopropanecarboxylate]",2.39

# System: Botrytis cinerea
# Assay: Botrytis cinerea in vitro cell test
# Assay type: cell-based
# Details: 120 h, 20 ppm of active ingredient, liquid culture, 5 days incubation, read-out: efficacy (inhibition of fungal growth)
# Procedure: • Solvent: DMSO • Culture medium: 14.6 g anhydrous D-glucose (VWR), 7.1 g Mycological Peptone (Oxoid), 1.4 g granulated Yeast Extract (Merck), QSP Iliter • Inoculum: spore suspension
# Fungicides were solubilized in DMSO and the solution used to prepare the required range of concentrations. The final concentration of DMSO used in the assay was ≤[…]1%.
# A spore suspension of B. cinerea was prepared and diluted to the desired spore density.
# Fungicides were evaluated for their ability to inhibit spore germination and mycelium growth in liquid culture assay. The compounds were added in the desired concentration to the culture medium with spores. After 5 days incubation, fungi-toxicity of compounds was determined by spectrometric measurement of mycelium growth. Inhibition of fungal growth was determined by comparing the absorbance values in wells containing the fungicides with the absorbance in control wells without fungicides.
row,SMILES,inhibition at 20 ppm
1,"CCOC(=O)C1(NC(=O)c2sc(Br)c(Br)c2F)CC1 [I.01, ethyl 1-{[(4,5-dibromo-3-fluoro-2-thienyl)carbonyl]amino}cyclopropanecarboxylate]",≤ 30%
2,"CCOC(=O)C1(NC(=O)c2sc(Cl)c(Cl)c2Br)CC1 [I.03, Ethyl 1-{[(3-bromo-4,5-dichloro-2-thienyl)carbonyl]amino}cyclopropanecarboxylate]",≤ 30%
3,"O=C(NC1(C(=O)O)CC1)c1sc(Cl)c(Cl)c1Br [I.15, 1-{[(3-bromo-4,5-dichloro-2-thienyl)carbonyl]amino}cyclopropanecarboxylic Acid]",≤ 30%
